Earlier results, collected in patent US20030003131A1, “Method for manufacture of free-flowing powder containing water-dispersible sterols” (priority 2001, published 2003).
Like-named read-outs stand apart in the source and are kept apart here.

Assays:
cholesterol absorption [1] = conditions: oil-free delivery system with emulsifier
cholesterol absorption [2] = test system: cholesterol absorption
LDL cholesterol = conditions: 2.8 g sitostanol/day given as sitostanol ester in margarine

CC[C@H](CC[C@@H](C)[C@H]1CC[C@H]2[C@@H]3CC[C@H]4C[C@@H](O)CC[C@]4(C)[C@H]3CC[C@]12C)C(C)C [sitostanol]
reduction of cholesterol absorption (cholesterol absorption [1]): ≤ 37%
reduction of serum cholesterol (serum cholesterol; 1.5 g/day, subjects with severe hypercholesterolemia): 15%
effect on serum cholesterol (serum cholesterol; 3 g/day, subjects with moderate hypercholesterolemia): no effect

CC[C@H](CC[C@@H](C)[C@H]1CC[C@H]2[C@@H]3CC=C4C[C@@H](O)CC[C@]4(C)[C@H]3CC[C@]12C)C(C)C [sitosterol]
decrease of serum cholesterol levels (serum cholesterol; 3-9 g/day of powdered sitosterol, dose-response study): 12%
reduction of serum cholesterol (serum cholesterol; doses of 5-18 g sitosterol/day): 16-20%

neomycin
effect on cholesterol absorption (cholesterol absorption [2]; orally administered): reduces cholesterol absorption effectively

sitostanol ester
reduction of LDL cholesterol (LDL cholesterol): 16%
less effective at reducing cholesterol absorption compared to the unesterified sterol (cholesterol absorption [2]; humans, ester dissolved in dietary fat): 21%
